For one assay, the target named is HIS-tagged IDO1 protein (Homo sapiens (Human), UniProt P14902). Description: IDO1 Enzyme Assay. The assay is classed as biochemical. Conditions: recombinant IDO1 40 nM, tryptophan substrate, fluorescence readout. The procedure, abridged: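 Recombinant E. coli-expressed HIS-IDO1 (40 nM final) in 50 mM Tris pH 7.0 with methylene blue, ascorbate and catalase, preincubated with compound 30 min at RT, then tryptophan added and reacted 60 min at RT. Quenched with methyl isonipecotate, heated, fluorescence read (ex 400/em 510 nm); IC50 from four-parameter logistic fit.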
Sequence of HIS-tagged IDO1 protein (P14902 whole entry): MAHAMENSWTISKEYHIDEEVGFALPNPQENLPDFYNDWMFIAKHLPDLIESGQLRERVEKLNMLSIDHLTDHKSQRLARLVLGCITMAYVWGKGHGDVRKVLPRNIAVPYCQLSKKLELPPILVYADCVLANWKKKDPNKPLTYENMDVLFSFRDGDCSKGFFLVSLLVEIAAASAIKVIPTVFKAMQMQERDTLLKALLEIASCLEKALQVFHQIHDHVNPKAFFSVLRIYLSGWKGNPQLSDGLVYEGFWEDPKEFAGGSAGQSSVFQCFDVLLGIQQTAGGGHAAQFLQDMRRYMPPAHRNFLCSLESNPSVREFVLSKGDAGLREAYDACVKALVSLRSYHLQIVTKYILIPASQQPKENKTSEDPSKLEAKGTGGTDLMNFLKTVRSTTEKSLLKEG

For assay [1], the target named is IDO1 in Hela cells stimulated with IFNγ (Homo sapiens (Human), UniProt P14902). The assay is described as follows: IDO1 Cellular Assay in Hela Cells Stimulated with IFNγ. It counts as cell-based. Conditions: IFNγ 100 ng/mL, about 48 hours, fluorescence readout, read-out: IDO1 HELA Cell Assay, IC50. Put shortly: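 IFNγ-stimulated (100 ng/mL) HeLa cells with 300 uM L-tryptophan were incubated with 10-point 3-fold compound dilutions for about 48 h at 37 °C. Kynurenine product was derivatized with methyl isonipecotate overnight and read by fluorescence (ex 400/em 510 nm). Signal was background-corrected using non-IFNγ cells and normalized to DMSO, and IC50 came from a four-parameter logistic fit.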
Sequence of IDO1 in Hela cells stimulated with IFNγ (P14902 whole entry): as above

Assay [2] has as its target IDO1 in human whole blood stimulated with LPS and IFNγ (Homo sapiens (Human), UniProt P14902). Description: IDO1 Human Whole Blood Assay. It counts as cell-based. Conditions: LPS and IFNγ 100 ng/mL, 18 h, kynurenine by LC/MS/MS. The protocol: IDO1 Human Whole Blood Assay
Compounds to be tested were serially diluted in ten 3-fold steps in DMSO starting from 10 mM. 3 μL of compound dilutions or DMSO alone were then dispensed from the dilution plate into a polypropylene 96-well assay plate containing 97 μL of RPMI using an Echo 555 acoustic liquid handler (Labcyte). LPS and IFNγ was prepared in RPMI to a 10× of final conc. (1000 ng/mL), final concentration is 100 ng/mL.
Human whole blood was drawn in sodium heparin coated tubes from healthy internal donors. Two hundred forty μL of blood was transferred to each of the wells of a v-bottom 96 well plate. Thirty μL of compound was transferred from intermediate dilution plate, and incubated for 15 min. Thirty μL from stimulants was then transferred to blood and mixed thoroughly. Plate was covered with breathable membrane and incubated at 37° C. for overnight (18 h).
On day 2 isotope labeled standard of kynurenine and tryptophan was made in water at 10× concentration and 30 μL was added to the blood at 3 μM final concentration. The assay plates were centrifuged at 300×G for 10 min with no brake to separate plasma from red blood cells. Sixty μL of plasma samples was removed without disturbing red blood cells. Plasma was diluted with RPMI in 1:1 ratio and proteins were precipitated out with two volume of Acetonitrile. The plates was centrifuged at 4000×G for 60 min. Twenty μL of supernatant was carefully transferred to a 384 well plate contain 40 μL of 0.1% formic acid in water and analyzed by LC/MS/MS.
LC/MS/MS analyses were performed using Thermo Fisher's LX4-TSQ Quantum Ultra system. This system consists of four Agilent binary high-performance liquid chromatography (HPLC) pumps and a TSQ Quantum Ultra triple quadruple MS/MS instrument. For each sample, 5 μL were injected onto an Atlantis T3 column (2.1 mm×150 mm, 3 μm particle size) from Waters. The mobile phase gradient pumped at 0.8 mL/min was used to elute the analytes from the column at 25° C. The elution started at 0% B increasing linearly to 25% B at 6.5 min, holding at 25% for 1 min, re-equilibrating to 10 min. Mobile phase A consisted of 0.1% formic acid in water. Mobile phase B consisted of 0.1% of formic acid in acetonitrile. Data was acquired in positive mode using a HESI interface. The operational parameters for the TSQ Quantum Ultra instrument were a spray voltage of 4000 V, capillary temperature of 380° C., vaporizer temperature 400° C., shealth gas 60 arbitrary units, Aux gas 20 arbitrary units, tube lens 85 and collision gas 1.2 mTorr. SRM chromatograms of kynurenine (Q 1: 209.2>Q3:94.0) and internal standard (Q1: 215.3>Q3:98.2) were collected for 90 sec. The peak area was integrated by Xcalibur Quan software. The ratios between the kynurenine generated in the reaction and 2D6-Kynurenine spiked-in internal standard were used to generate percentage inhibition and IC50 values. Compounds were titrated and IC50's were calculated by 4 parameter sigmoidal curve fitting formula.

These results are taken from patent US11034661B2, “Substituted N′-hydroxycarbamimidoyl-1,2,5-oxadiazole compounds as indoleamine 2,3-dioxygenase IDO inhibitors” (Merck Sharp & Dohme Corp., priority 2017, dated 2021).

pIC50: −log10 of the molar value.

Sequence of IDO1 in human whole blood stimulated with LPS and IFNγ (P14902 whole entry): as above

Consider `NC(=O)NCCOc1nonc1/C(=N/O)NC1Cc2ccc(F)cc21` (stereo not drawn) [Example 11, 4-[2-(carbamoylamino)ethoxy]-N-(4-fluorobicyclo[4.2.0]octa-1,3,5-trien-7-yl)-N′-hydroxy-1,2,5-oxadiazole-3-carboximidamide], for which the negative-log IC50 (pIC50) at HIS-tagged IDO1 protein was 7.13; in assay [1], 6.71. The “IDO1 human whole blood assay, IC50” value in assay [2] is listed as 262.4 nM.

With `O=C(c1nc[nH]n1)N1CC(Oc2nonc2/C(=N/O)N[C@H]2Cc3ccc(F)cc32)C1` [Example 30, N-[(7S)-4-fluorobicyclo[4.2.0]octa-1,3,5-trien-7-yl]-N′-hydroxy-4-{[1-(1H-1,2,4-triazole-3-carbonyl)azetidin-3-yl]oxy}-1,2,5-oxadiazole-3-carboximidamide], the values for the pIC50 (on HIS-tagged IDO1 protein; in assay [1]) were 7.25 and 7.18, respectively. Moreover, the “IDO1 human whole blood assay, IC50” value in assay [2] came to 665.5 nM.

On to `O=C(CO)N1CC(Oc2nonc2/C(=N/O)N[C@H]2Cc3ccc(F)cc32)C1` [Example 2, (S)—N-(4-fluorobicyclo[4.2.0]octa-1(6),2,4-trien-7-yl)-N′-hydroxy-4-((1-(2-hydroxyacetyl)azetidin-3-yl)oxy)-1,2,5-oxadiazole-3-carboximidamide], for which the results for the pIC50 (on HIS-tagged IDO1 protein; in assay [1]) were 7.12 and 7.03, respectively. Moreover, in assay [2], the “IDO1 human whole blood assay, IC50” value stood at 232.5 nM.
